Patent US20020142982A1, “Method for regulating angiogenesis” (priority 1999, published 2002)

Key:
Assay type in all cases: cell-based, human
[1] = system: HUVEC; assay: C2-Ceramide-induced apoptosis of HUVEC (DNA fragmentation); conditions: pretreatment 2 hours; PD98059 10 μM
Experimental: The ability of SPP to protect endothelial cells from apoptosis was investigated. In these experiments, HUVEC were treated with 1 μM C2-Ceramide for 12 hours and apoptosis was measured in the following manner: HUVEC were plated onto coverslips and allowed to grow for 2 days. Cells were washed three times with medium M199, and treated with 1 μM C2-Ceramide (Biomol) for 12 hours in the presence or absence of SPP. Subsequently, cells were fixed with methanol at −20° C. for 5 minutes, air dried, and stained with Hoechst 33258 dye (0.5 μg/mL for 5 minutes; Sigma Chemical Co., St. Louis, Mo.). The apoptotic nuclei were identified with the aid of a Zeiss Axiovert 100TB fluorescence microscope. For quantification, HUVEC were labeled with ^3Hmethyl-thymidine (5 μCi/mL, NEN DuPont) for 24 hours. Following three washes with medium M199, cells were treated with C2-Ceramide as above. 12 hours later, cells were extracted with lysis buffer (5 mM tris, pH 7.4, 2 mM EDTA, 0.5% TX-100) at 4° C. for 20 minutes. After centrifugation (15,000 g, 20 minutes), the radioactivity present in the supernatant and sediment was measured by liquid scintillation counting. The percentage of DNA fragmentation was determined as ((supernatant cpm)/(supernatant cpm+sediment cpm))×100%.
SPP+PTx and SPP+PD98059 (10 μM), respectively, for 2 hours prior to the addition of C2-Ceramide (1 μM) and SPP (10 to 500 nM). Data are mean±standard deviation of triplicate determinations from a representative experiment which was repeated two times. […] A similar effect was also seen when growth factor withdrawal, and 15-deoxy Δ^12,14 prostaglandin J2 were used as apoptotic stimuli (data not shown). […] Therefore SPP induced endothelial cell survival requires the Gi/ERK signaling pathway.

[2] = system: ERK-2; assay: ERK-2 immune complex kinase assay in HUVEC; conditions: PTx 200 ng/mL or PD98059 10 μM, 2 hours pretreatment
Experimental: As a second functional assay, ERK-2 kinase activity was measured in response to SPP treatment. For these experiments, endothelial cells were starved for 19 hours, and then stimulated with SPP for 10 minutes. Cells were then lysed, and ERK-2 kinase activity was measured by an immune complex kinase assay using myelin basic protein (MBP) as substrate. Some cells were pretreated with pertussis toxin (PTx) at 200 ng/mL, or PD98059 at 10 μM for 2 hours prior to stimulation.

[3] = system: HUVEC; assay: Adherens junction assembly in HUVEC, immunofluorescence of VE-cadherin and catenins; conditions: for VE-cadherin, α-, β- and γ-catenin localization at cell-cell junctions: 500 nM, 1 hour
Experimental: To investigate whether SPP regulates the formation of adherens junction in endothelial cells, HUVEC were plated at a density of 2×10^4 cells/em^2 for 2 days, starved in lipid-depleted medium and treated without (cont) or with SPP (500 nM for 1 hours). For these experiments, after treatment cells were washed with ice-cold PBS, fixed with 4% formaldehyde at room temperature or methanol at −20° C. for 15 minutes. In the case of formaldehyde fixation, cells were permeabilized with 0.2% TX-100. After washing with PBS, cells were stained with antibodies as follows: VE-cadherin ([…], Transduction Labs, San Diego, Calif.; 1 μg/mL, Santa Cruz Biotechnology, Inc., Santa Cruz, Calif.), α-catenin ([…], Transduction Labs), β-catenin (1.25 μg/mL, Transduction Labs; 0.4 μg/mL, Santa Cruz), γ-catenin ([…], Transduction Labs). The primary antibody staining was visualized with FITC-conjugated goat anti-rabbit or TRITC conjugated sheep anti-mouse (1:1000, Cappel, now owned by ICN, Costa Mesa, Calif.) for 30 minutes at room temperature, and imaged on a Zeiss Axiovert 100TV fluorescence microscope. […]

[4] = system: HUVEC; assay: HUVEC morphogenesis on MATRIGEL (in vitro angiogenesis, tubular length); conditions: for HUVEC morphogenesis on MATRIGEL (tubular length): 12-18 hours, SPM and C1P 1 μM
Experimental: FIG. 42 is microscope images showing morphogenesis of HUVEC cells plated on Matrigel. HUVEC cells were transduced with 50 MOI of indicated viruses; a,b=none, c=β-gal, d=wild-type EDG-1, e=T236AEDG-1, f=T236AEDG-1+wild-type Akt. Total viral load in c-f is normalized. In vitro angiogenesis assay on Matrigel was conducted in the presence (b to f) or not (a) of 100 nM S1P. The numbers are mean±s.e.m of total tubular length per microscopic field (n=2). Scale bar=170 μm.
To investigate SPP induction of angiogenesis, 200 μL aliquots of thawed MATRIGEL were polymerized in 24-well tissue culture plates. HUVEC were trypsinized, resuspended in plain M199 medium containing soybean trypsin inhibitor (10 mg/mL, Sigma Chemical Co., St. Louis, Mo.). Following centrifugation (250 g; 5 minutes), cells were resuspended in plain M199 supplemented with 2% CFBS at a density of 1.5×10^5 cells/mL. 200 μL of cell suspension were seeded on these gels in the presence or absence of SPP (Biomol), for 12-18 hours. Cells were rinsed two times with phosphate buffered saline (PBS), and then fixed with 4% formaldehyde. Results were recorded photographically using a Zeiss Axiovert 100TV microscope equipped with a 5× objective. Five random fields of each well were photographed, and total tubular length was quantified by image analysis (Kinsella, J. et al., Experimental Cell Research 199: 56-62 (1992); Gamble J., et al., J. Cell Biol. 121: 931-943 (1993)).
Scale bar represents 52 microns. These quantitative data are the mean±standard deviation of duplicate determinations from a representative experiment which was repeated at least three times. SPP concentrations (in μM) are indicated in parentheses. For SPP +PTx, HUVEC were pretreated with PTx (200 ng/mL) for 2 hours, trypsinized, plated onto MATRIGEL, then stimulated with 500 nM SPP in the presence of PTx (20 ng/mL) for 16-18 hours. For SPP+C3, HUVEC were pretreated with C3 exoenzyme (10 μg/mL) for 48 hours, trypsinized, plated onto MATRIGEL, stimulated with 500 nM SPP together with the same concentration of C3 exotoxin. SPM, sphingomyelin (1 μM). For C1P, C8-ceramide-1-phosphate (1 μM). The maximal effects achieved by 1 μM SPP was indistinguishable from the positive control medium which contained FBS.
In these experiments, HUVEC were plated onto MATRIGEL in the presence of the same amount of corresponding antibodies without or with 500 nM SPP. 16 hours later, total length of HUVEC networks formed on MATRIGEL was quantified.

[5] = system: HUVEC; assay: SPP-induced intracellular calcium in HUVEC (Indo-1 fluorescence); conditions: PTx 500 ng/mL pretreatment 16 hours
Experimental: Functional assays were used to test for the presence of Gi-coupled and Gq-coupled SPP receptors in HUVEC. First, intracellular calcium levels were measured in response to SPP. For these experiments, cells were grown on 100-mm tissue culture dishes and loaded with the fluorescent calcium-sensitive dye, Indo-1 acetoxymethyl ester (Indo-1/AM, 5 μg/mL; Molecular Probes, Inc., Eugene, Oreg.), for 30 min at 37° C. Cells were then washed with medium M199, briefly trypsinized (0.05% porcine trypsin/0.02% EDTA in HBSS (JRH Biosciences, Lenexa, Kans.), and the trypsin activity was immediately neutralized with soybean trypsin inhibitor (5 μg/mL, Sigma Chemical Co., St. Louis, Mo.). Following centrifugation (250 g×5 min), cells were resuspended in M199 medium to a density of 2.7×10^5 cells/mL. Cells were then stimulated with different doses of SPP. Some cells were pretreated with the Gi inhibitor pertussis toxin (PTx, 500 ng-/mL) for 16 hours. Calcium ion concentration was then quantified by measuring changes in indo-1 fluorescence in 2 mL of cell suspension by a Hitachi F-2000 fluorescence Spectrophotometer with constant stirring. Fluorescence emission was monitored at 400 and 475 nm with excitation at 352 nm. [Ca^+2]1 was calculated as described in Volpi and Berlin, J. Cell Biol., Vol. 107, 2533-39 (1988).

Compound	inhibition of the cytoprotective effect of SPP [1]	inhibition of SPP-induced ERK activity [2]	VE-cadherin, α-, β- and γ-catenin localization at cell-cell junctions [3]	HUVEC morphogenesis on MATRIGEL (tubular length) [4]	other results
COc1cccc(-c2cc(=O)c3ccccc3o2)c1N [PD98059]	completely inhibited	inhibited completely	–	–	–
CCCCCCCCCCCCC/C=C/[C@@H](O)[C@H](COP(=O)(O)O)NC(=O)CCCCCCC [ceramide-1-phosphate, C8-ceramide-1-phosphate]	–	–	had no effect	inactive	–
CCCCCCCCCCCCC/C=C/[C@@H](O)[C@@H](N)CO [sphingosine]	–	–	had no effect	–	–
ceramide	–	–	had no effect	–	–
pertussis toxin	completely inhibited	inhibited completely	–	–	inhibition of SPP-induced β-catenin translocation ([3]; HUVEC, SPP treatment): did not inhibit; inhibition of SPP-induced morphogenesis ([4]; 500 nM SPP, MATRIGEL): potently inhibited; inhibition of SPP-induced calcium response [5]: approximately 90%
sphingomyelin	–	–	had no effect	inactive	–
